In paper PMC9643456, “Matching amino acids membrane preference profile to improve activity of antimicrobial peptides” (Communications Biology, 2022):
Converted amounts (≈) assume the structure as drawn. Square brackets hold non-standard residues; d marks the D form. Peptide text beside a SMILES is read from it.

What was measured:
MDR A. baumannii = assay: Killing kinetics in the SEM sample; type: cell-based, Acinetobacter baumannii; conditions: 2 × 10^8 cfu/ml, x1 MIC, PBS, after 4 hours
Procedure: (§1) FE-SEM was used to observe peptide-induced changes in bacterial morphology. MDR A. baumannii (ATCC BAA-1605) and MDR S. aureus (KCCM 40510) were cultured in CAMHB to log phase and washed in PBS. Bacteria and peptides were diluted in PBS, after which aliquots of bacteria (50 μl) and peptides (50 μl) were mixed to yield the following final concentrations: MDR A. baumannii or MDR S. aureus, 2 × 10^8 CFU/ml; WCopW29, 2.5 μM. Mixtures were deposited onto cover glass slips and incubated for 0 min, 15 min, 30 min, 1 h or 4 h. After incubation, the bacteria were fixed with paraformaldehyde (4%) and osmium tetroxide (1%) (Sigma, Darmstadt, Germany), washed with water, and freeze-dried overnight. Freeze-dried samples were Pt-coated and placed in an S-4700, EMAX System field emission scanning electron microscope (Hitachi, Tokyo, Japan). Bacterial morphologies were imaged and recorded on video at magnifications of 10,000× and 25,000×.
(§2) Antimicrobial kinetics for each peptide and each bacterial strain were assessed using FE-SEM. […] Each experiment was performed in triplicate.

E. coli ML35 = conditions: ML35, 18 h
Procedure: To assess antimicrobial activity, the MIC50 and MIC90 were measured using broth microdilution following CLSI guidelines. […] Each experiment was performed in triplicate. Meropenem (Sigma, Darmstadt, Germany) and colistin were used as control antibiotics. Cation-adjusted Mueller–Hinton broth (CAMHB) (Becton, Dickinson and Company, Franklin Lakes, USA) with supplied calcium (50 mg/L) and magnesium (10 mg/L) was used for the CLSI-test condition. Bacteria in midlog phase and peptides were separately diluted in CAMHB. The bacteria and peptide solutions were then mixed in 96-well polyethylene plates (SPL, Gyeonggi-do, Korea) and incubated for 18 h at 37 °C. The final concentration for bacteria was 5 × 10^5 CFU/ml. […] The MIC was defined to be the lowest concentration of peptide without visible turbidity by comparing with control antibiotics with the unaided eye. […] MICs in albumin and acetic acid solutions were measured using the same protocol but with 0.2% bovine serum albumin (Bovogen, Keilor, Australia), 0.01% acetic acid (Merck, New Jersey, USA), and CAMHB with both calcium and magnesium. In addition, MICs used in the antibiotic resistance acquisition test, the outer–inner membrane permeation test, and the transmembrane potential test and for FE-SEM were individually determined. […] Inhibitory activity unidentifiable by direct observation was determined by counting the CFUs. […]

MDR S. aureus = assay: Killing kinetics in the SEM sample; type: cell-based, Staphylococcus aureus; conditions: 2 × 10^8 cfu/ml, x1 MIC, PBS, after 4 hours
Procedure: as §1, §2

A. baumannii KCCM 40203 = assay: microbe, parasite or virus in culture; conditions: bacteria OD 0.01, CAMHB
Procedure: (§3) To assess antimicrobial activity, the MIC50 and MIC90 were measured using broth microdilution following CLSI guidelines. […] Each experiment was performed in triplicate. Meropenem (Sigma, Darmstadt, Germany) and colistin were used as control antibiotics. Cation-adjusted Mueller–Hinton broth (CAMHB) (Becton, Dickinson and Company, Franklin Lakes, USA) with supplied calcium (50 mg/L) and magnesium (10 mg/L) was used for the CLSI-test condition. Bacteria in midlog phase and peptides were separately diluted in CAMHB. The bacteria and peptide solutions were then mixed in 96-well polyethylene plates (SPL, Gyeonggi-do, Korea) and incubated for 18 h at 37 °C. The final concentration for bacteria was 5 × 10^5 CFU/ml. […] The MIC was defined to be the lowest concentration of peptide without visible turbidity by comparing with control antibiotics with the unaided eye. […] Each experiment was performed in triplicate. MICs in albumin and acetic acid solutions were measured using the same protocol but with 0.2% bovine serum albumin (Bovogen, Keilor, Australia), 0.01% acetic acid (Merck, New Jersey, USA), and CAMHB with both calcium and magnesium. In addition, MICs used in the antibiotic resistance acquisition test, the outer–inner membrane permeation test, and the transmembrane potential test and for FE-SEM were individually determined. The final bacterial concentrations used were as follows: for resistance acquisition, optical density (OD) 0.01; for outer–inner membrane permeability assays (LB), OD 0.1; for the transmembrane potential test, 1 × 10^8 CFU/ml (OD 0.171); […]. Inhibitory activity unidentifiable by direct observation was determined by counting the CFUs. Each experiment was performed at least twice.
(§4) A. baumannii (KCCM 40203) and S. aureus (KCTC 1621) were selected as drug-sensitive bacteria. Mutation-susceptible tetracycline (an antibiotic that targets ribosomes) (Sigma, Darmstadt, Germany) and ofloxacin (an antibiotic that targets DNA gyrase) (Sigma, Darmstadt, Germany), mutation-resistant colistin (an antibiotic that targets lipopolysaccharide) (Sigma, Darmstadt, Germany) and vancomycin (an antibiotic that targets peptidoglycan pentapeptide) (Sigma, Darmstadt, Germany) were used as control antibiotics. The MIC for each antibiotic against bacteria (at OD 0.01) was measured. […] The MIC for each passage was confirmed by additional broth microdilutions under CLSI guidelines. Resistance acquisition was induced for 30 days (30 passages), and each MIC value was confirmed by an independent MIC test against bacteria at each passage.

[1] = system: A. baumannii (KCCM 40203) and S. aureus (KCTC 1621); conditions: MIC and sub-MIC exposure for 30 days (30 passages)
Text: as §4

E. aerogenes NCCP 16285 = assay: microbe, parasite or virus in culture
Procedure: as §3

[2] = system: MDR A. baumannii, MDR S. aureus or MDR K. pneumonia; assay: In vivo activity, subcutaneously infected mice; design: species or system BALB/c mice
Procedure: (§5) Female BALB/c mice (8-week old; n = 10) were purchased from orientbio (Gyeonggido, Republic of Korea) and fed under standardized environmental conditions for 1 week to be used to estimate time-dependent mouse survival rates. After inducing neutropenia by intraperitoneal injection of cyclophosphamide (150 mg/kg; Sigma), MDR S. aureus (KCCM 40510), MDR A. baumannii (colistin-resistant strain) or MDR K. pneumonia (colistin-resistant strain, NCCP 16125) was diluted in PBS and subcutaneously injected into mice (S. aureus, 1.5 × 10^8 CFU/ml; A. baumannii, 1 × 10^8 CFU/ml; K. pneumonia, 1 × 10^9 CFU/ml). After bacterial infection, 100 μl of WCopW43 peptide dissolved in distilled water (10 mg/ml) were injected (50 mg/kg) into each infected site, and survival was monitored every 12 h for 7 days. For A. baumannii infection, mice were intraperitoneally injected with mucin ([…], 1% in PBS, 300 μl) to suppress macrophages, and A. baumannii cells were incubated with mucin (1% in PBS) for 3 h before subcutaneous injection of 2 × 10^8 CFU/ml (0.2% mucin in PBS)[71]–[74]. Survival rates were calculated using the formula: 100% × (number of surviving mice/ten mice). One day after WCopW43 (50 mg/kg) injection, four mice were randomly selected and sacrificed by CO2 inhalation. […] Homogenized samples were spread onto MH agar plates, and CFU values were determined after incubation overnight at 37 °C.

[3] = 100 mg/kg s.c. daily for 3 days, n = 3; BUN and creatinine
Procedure: To assess nephrotoxicity, mice (female BALB/c, 8 weeks old; n = 3) were subcutaneously administered WCopW43 (100 mg/kg) or PBS (controls) three times (once every 24 h). Blood samples were then collected from the retroorbital veins into heparin-coated glass capillary tubes (Kimble Chase, NJ, USA), which were then centrifuged at 4000 rpm. The serum was collected and analyzed using a blood urea nitrogen (BUN) assay kit (Arbor Assay, Ann Arbor, USA) and a creatinine assay kit (Arbor Assay). Levels of BUN and blood creatinine clearance were measured using a SpectraMax plate spectrophotometer (Molecular Devices) at 450 nm and 490 nm, respectively.

[4] = system: colistin-resistant A. baumannii; assay: In vivo activity, survival of infected mice; conditions: mouse model infected with colistin-resistant A. baumannii
Procedure: as §5

Compound: CC[C@@H](C)[C@@H](NC(=O)[C@@H](Cc1c[nH]c2ccccc12)NC(=O)[C@H](NC(=O)[C@@H](CC(C)C)NC(=O)[C@H](N)Cc1c[nH]c2ccccc12)C(C)C)C(=O)N[C@H](Cc1c[nH]c2ccccc12)C(=O)N[C@H](CCCNC(=N)N)C(=O)N[C@H](CCCNC(=N)N)C(=O)N[C@H](CCCNC(=N)N)C(N)=O [WCopW29] (H-[dW][dL][dV][dW][dI][dW][dR][dR][dR]-NH2)
- Loss of colony forming (MDR A. baumannii): 99%
- MIC at OM-IM permeation condition, E. coli ML35 (E. coli ML35): 5 µM (≈ 6.85 µg/mL)
- Loss of colony forming (MDR S. aureus): 90%
- MIC at resistance induction condition, A. baumannii KCCM 40203 (A. baumannii KCCM 40203): 1.25 µM (≈ 1.71 µg/mL)
- MIC during resistance acquisition [1]: stable over a period of 30 days

Compound: CC[C@@H](C)[C@@H](NC(=O)[C@@H](Cc1c[nH]c2ccccc12)NC(=O)[C@@H](CCCNC(=N)N)NC(=O)[C@@H](CCCNC(=N)N)NC(=O)[C@H](N)CCCNC(=N)N)C(=O)N[C@H](Cc1c[nH]c2ccccc12)C(=O)N[C@@H](C(=O)N[C@@H](C(=O)N[C@H](Cc1c[nH]c2ccccc12)C(=O)N[C@H](CCCCN)C(N)=O)[C@H](C)CC)C(C)C [WCopW43] (H-[dR][dR][dR][dW][dI][dW][dV][dI][dW][dK]-NH2)
- MIC, E. aerogenes NCCP 16285 (E. aerogenes NCCP 16285; NCCP 16285, 18 h): 1.25 µM (≈ 1.87 µg/mL)
- Decrease of bacterial burden (CFU) ([2]; WCopW43 50 mg/kg s.c. 1 h after infection, tissue CFU one day after infection, vs PBS): ~ 90%
- Survival compared with PBS-injected mice ([2]; WCopW43 50 mg/kg s.c., neutropenic BALB/c mice, n = 10, 7 days): survived longer
- Nephrotoxicity indicators [3]: non-nephrotoxic
- Survival rate [4]: 100%
- MIC during resistance acquisition [1]: emergence of WCopW43 resistance is suppressed

Compound: Colistin
- MIC, E. aerogenes NCCP 16285 (E. aerogenes NCCP 16285; MIC test, 5 x 10^5 cfu/ml, CAMHB): > 5 µM
- MIC at resistance induction condition, A. baumannii KCCM 40203 (A. baumannii KCCM 40203): 1.25 µM
- Survival rate [4]: 90%
